# Reference: patent publication US20030235646A1, “Method for improving quality of meat by supplementing pig diets and concentrates used therefor” (Lonza Inc., priority 2002, published 2003)
# Experiments:
# [1] = system: finishing pigs (longissimus muscle); assay: Carcass quality measures of finishing pigs fed Carnitine and Paylean (Example 1); assay type: in vivo; parameters: key to L*: lightness: 100 = perfect white, 0 = absolute black; key to Firmness: score 1 = soft and watery, 5 = firm and dry; Hue angle / Drip loss: unit not given here; settings: for Temperature: 45 minutes postmortem
# Source text: Color is qualitatively measured using Minolta color-spectrometry, a process which evaluates the Hunter L* and a* values of the meat color, as well as by the saturation index and the Hue Angle value. Hunter L* value measures the lightness of the meat color and varies from 100 for perfect white to 0 for absolute black. Acceptable values for pork range from 35 to 55, with 40-45 values being most preferred by consumers.
# The other Hunter value is related to the hue of the color of the meat, with increasing a* values indicating redness and decreasing a values indicating greenness. High quality pork has Hunter a* values which range from 7.5 to 12, and consumers prefer meat with 9-9.5 scores.
# Hue Angle value measures the discoloration of meat. Increasing values indicate increasing discoloration of meat. Decreasing values indicate reduction of the discoloration. Acceptable pork Hue Angle values range from 48 to 54, and the preferred values range from 48-52.
# The final spectrographic measurement is the saturation index, which is related to the strength of the color of the meat. Acceptable pork saturation index values range from 12 to 15.5, with values from 13-14.5 being preferred. The color of the meat is of particular importance in some export markets, such as Japan, Korea, Asia and South America. […] Acceptable marbling score ranges from 1 to 3, with 2.5 being preferred.
# Drip loss is a measurement of the ability of the sample to retain water. In this procedure, a standardized amount of lean pork muscle, i.e., a cubic centimeter, is weighed, then suspended in an airtight container from a hook for 24 hours. The difference in weight from beginning to end of the 24 hour period represents the amount of water loss or purge. The greater the amount of purge loss, the poorer the pork quality. Changes in the pH of pork associated with postmortem metabolism affect the isoelectric point of the various amino acids in protein, and thus can affect the protein's ability to bind water. Pork with high drip loss is termed in the industry as “exudative” which is undesirable to both meat producers and consumers.
# The firmness of the meat is measured visually on the score from 1 to 5, 1 being soft and watery, 5 being firm and dry. The acceptable score is 2-4, and the preferred score is 2.5-3.5. This characteristic of pork has become important due to recent attempts to genetically improve the leanness of the meat. The desired leanness has been accompanied by a negative impact on the meat firmness. As a result, approximately 30% of the meat now going through packing houses has been categorized as PSE (Pale Soft Exudative meat) and is unacceptable to the consumer, thus causing economic loss to the meat producer according to the National Meat Producers Council. Thus, there is an urgent need in the art for means of improving the quality (firmness, color, marbling) and carcass characteristics of the pork.
# (§1) One hundred twenty-six gilts (initially 73.6 lb, PIC C22×L326) were allotted by weight and ancestry in a randomized complete block design to each of the nine experimental treatments arranged in a 3×3 factorial arrangement. There were two pigs/pen and seven replicates/treatment. Pigs were housed in an environmentally controlled building with 4-ft×4-ft slatted-floor pens.
# Pigs were fed a corn-soybean meal diet composed of the following:
# L-carnitine (0, 25, or 50 ppm) was added to the diet from 73.6 lb until slaughter (approximately 240 lb). Paylean (a registered trademark of Eli Lilly Company for ractopamine) treatments (0, 4.5, or 9 g/ton) were fed for the last four weeks of the experiment. The basal diet was formulated to contain 1.10% lysine from 73.6 to 164 lb, and 1.00% lysine from 164 lb until the end of the experiment. These quantities of Paylean are equivalent to 0, 5, and 10 ppm of ractopamine in the feed, respectively. […]
# [2] = system: finishing pigs; assay: Carcass characteristics of finishing pigs fed Carnitine and Paylean (Example 2); assay type: in vivo; settings: for Firmness / Marbling / Visual cobra: score 1 to 5
# Protocol: Because of the dramatic and potentially economically important changes in pork quality observed in the data of Example 1, a second trial was conducted to confirm these observations. This experiment was conducted in the same facility as Example 1 and used the same diet in Table 1. The primary difference was that the 4.5 g/ton ractopamine level was not included; i.e., only 0 or 9 grams/ton ractopamine was combined with either 0, 25, or 50 ppm of added L-camitine.
# [3] = system: pigs; assay: Growth performance of pigs (Example 1); assay type: in vivo; settings: between 73.6 and 164 lb; P>0.64
# Protocol: as §1
# L-carnitine (0, 25, or 50 ppm) was added to the diet from 73.6 lb until slaughter (approximately 240 lb). Paylean (a registered trademark of Eli Lilly Company for ractopamine) treatments (0, 4.5, or 9 g/ton) were fed for the last four weeks of the experiment. The basal diet was formulated to contain 1.10% lysine from 73.6 to 164 lb, and 1.00% lysine from 164 lb until the end of the experiment. These quantities of Paylean are equivalent to 0, 5, and 10 ppm of ractopamine in the feed, respectively.
# Weights were obtained on every pig and feed disappearance was recorded every fourteen days during the experiment until the last four weeks, at which time measurements were taken weekly to calculate ADG, ADFI, and feed efficiency (F/G). One pig (closest to 240 lb) per pen was selected and slaughtered at the Kansas State University Meat Laboratory. […]
# Data were analyzed as a randomized complete block. […]
# [4] = system: pork; assay: Follow-up studies of pork drip loss (Example 3, FIGS. 1 and 2); assay type: in vivo, pigs
# Protocol: Drip loss is a measurement of the ability of the sample to retain water. In this procedure, a standardized amount of lean pork muscle, i.e., a cubic centimeter, is weighed, then suspended in an airtight container from a hook for 24 hours. The difference in weight from beginning to end of the 24 hour period represents the amount of water loss or purge. […] Changes in the pH of pork associated with postmortem metabolism affect the isoelectric point of the various amino acids in protein, and thus can affect the protein's ability to bind water.
# [5] = Paylean 0 g/ton, Carnitine 25 ppm
# [6] = Paylean 0 g/ton, Carnitine 25 ppm, score 1 to 5
# [7] = Paylean 0 g/ton, Carnitine 50 ppm
# [8] = Paylean 0 g/ton, Carnitine 50 ppm, score 1 to 5
# [9] = with 4.5 or 9 g/ton Paylean, but not control pigs
# [10] = with increasing levels, linear, P<0.04
# [11] = Paylean 4.5 g/ton, Carnitine 0 ppm
# [12] = Paylean 4.5 g/ton, Carnitine 0 ppm, score 1 to 5
# [13] = Paylean 9 g/ton, Carnitine 0 ppm
# [14] = Paylean 9 g/ton, Carnitine 0 ppm, score 1 to 5
smiles,measurement,setting,value
"C[N+](C)(C)C[C@H](O)CC(=O)[O-] [Carnitine, L-carnitine]",Drip loss,[1]; [5],2.80
same,Hue angle,[1]; [5],67.38
same,L*,[1]; [5],58.01
same,PH 45 m postmortem,[1]; [5],6.55
same,PH 24 h postmortem,[1]; [5],5.79
same,Saturation index,[1]; [5],15.89
same,a*,[1]; [5],6.17
same,a*/b*,[1]; [5],0.42
same,b*,[1]; [5],14.61
same,Temperature,[1]; [5],34.83 °C
same,Firmness,[1]; [6],1.65
same,Marbling,[1]; [6],1.71
same,Visual color,[1]; [6],2.78
same,Drip loss,[1]; [7],2.07
same,Hue angle,[1]; [7],67.05
same,L*,[1]; [7],56.80
same,PH 45 m postmortem,[1]; [7],6.46
same,PH 24 h postmortem,[1]; [7],5.76
same,Saturation index,[1]; [7],16.44
same,a*,[1]; [7],6.45
same,a*/b*,[1]; [7],0.43
same,b*,[1]; [7],15.10
same,Temperature,[1]; [7],32.98 °C
same,Firmness,[1]; [8],1.93
same,Marbling,[1]; [8],1.85
same,Visual color,[1]; [8],3.14
same,visual color scores,[1]; in control pigs,did not improve
same,L* values,"[1]; increasing levels, fed with 4.5 or 9 g/ton of Paylean, longissimus muscle at 10th rib",lower L* values
same,"color, marbling, L*, a*/b* ratio and hue angle",[1]; supplementing finishing pig diets,positively improve
same,Visual color,[1]; when 4.5 or 9 g/ton of Paylean was fed,did improve
same,Hue angle values,[1]; [9],lower
same,a*/b* values,[1]; [9],lower
same,Drip loss measured 48 hours postmortem,[1]; [10],decreased
same,temperature at 45 minutes postmortem,[1]; [10],decreased
same,Ultimate (24-h) pH,"[1]; with increasing levels, linear, P<0.07",increased
same,Measurements of b*,"[1]; with increasing levels, quadratic, P<0.05",decreased
same,saturation index measured on the longissimus muscle,"[1]; with increasing levels, quadratic, P<0.07",tended to decrease
same,Drip loss,[2]; [5],3.07%
same,Hue angle,[2]; [5],64.61
same,L*,[2]; [5],57.23
same,Saturation index,[2]; [5],17.59
same,Temperature 5 min,[2]; [5],39.79 °C
same,Temperature 15 min,[2]; [5],39.92 °C
same,Temperature 45 min,[2]; [5],39.03 °C
same,Temperature 1.5 h,[2]; [5],32.87 °C
same,Temperature 3 h,[2]; [5],22.12 °C
same,Temperature 6 h,[2]; [5],11.28 °C
same,a*,[2]; [5],7.58
same,a*/b*,[2]; [5],0.48
same,b*,[2]; [5],15.86
same,pH 0 min,[2]; [5],7.13
same,pH 5 min,[2]; [5],6.84
same,pH 15 min,[2]; [5],6.60
same,pH 45 min,[2]; [5],6.16
same,pH 1.5 h,[2]; [5],5.91
same,pH 3 h,[2]; [5],5.76
same,pH 6 h,[2]; [5],5.70
same,pH 24 h,[2]; [5],5.61
same,Firmness,[2]; [5],2.44
same,Marbling,[2]; [5],1.75
same,Visual cobra,[2]; [5],3.10
same,Drip loss,[2]; [7],2.73%
same,Hue angle,[2]; [7],64.07
same,L*,[2]; [7],58.00
same,Saturation index,[2]; [7],18.11
same,Temperature 5 min,[2]; [7],39.17 °C
same,Temperature 15 min,[2]; [7],39.56 °C
same,Temperature 45 min,[2]; [7],38.73 °C
same,Temperature 1.5 h,[2]; [7],33.17 °C
same,Temperature 3 h,[2]; [7],20.89 °C
same,Temperature 6 h,[2]; [7],11.22 °C
same,a*,[2]; [7],7.93
same,a*/b*,[2]; [7],0.49
same,b*,[2]; [7],16.27
same,pH 0 min,[2]; [7],7.21
same,pH 5 min,[2]; [7],6.82
same,pH 15 min,[2]; [7],6.58
same,pH 45 min,[2]; [7],6.02
same,pH 1.5 h,[2]; [7],5.97
same,pH 3 h,[2]; [7],5.88
same,pH 6 h,[2]; [7],5.70
same,pH 24 h,[2]; [7],5.60
same,Firmness,[2]; [7],2.34
same,Marbling,[2]; [7],1.55
same,Visual cobra,[2]; [7],2.90
same,meat quality,[2]; in pigs fed Paylean,improves meat quality
same,growth performance of pigs,[3],did not affect
same,effect on drip loss,"[4]; 50 ppm, without ractopamine, two of the three studies, FIG. 1",small positive effect
same,effect on reducing (improving) pork drip loss,"[4]; added to diet containing ractopamine, FIG. 2",greater net positive effect
"CC(CCc1ccc(O)cc1)NCC(O)c1ccc(O)cc1 (centres unmarked) [Paylean, ractopamine, reference compound]",Drip loss,[1]; [11],3.13
same,Hue angle,[1]; [11],69.95
same,L*,[1]; [11],60.78
same,PH 45 m postmortem,[1]; [11],6.41
same,PH 24 h postmortem,[1]; [11],5.79
same,Saturation index,[1]; [11],16.76
same,a*,[1]; [11],5.78
same,a*/b*,[1]; [11],0.37
same,b*,[1]; [11],15.69
same,Temperature,[1]; [11],34.39 °C
same,Firmness,[1]; [12],1.79
same,Marbling,[1]; [12],1.35
same,Visual color,[1]; [12],2.57
same,Drip loss,[1]; [13],3.68
same,Hue angle,[1]; [13],68.65
same,L*,[1]; [13],61.53
same,PH 45 m postmortem,[1]; [13],6.33
same,PH 24 h postmortem,[1]; [13],5.71
same,Saturation index,[1]; [13],17.12
same,a*,[1]; [13],6.30
same,a*/b*,[1]; [13],0.39
same,b*,[1]; [13],15.90
same,Temperature,[1]; [13],35.72 °C
same,Firmness,[1]; [14],1.79
same,Marbling,[1]; [14],1.64
same,Visual color,[1]; [14],2.57
same,Twenty-four hour pH,"[1]; with increasing levels of Paylean, quadratic, P<0.06, highest at 4.5 g/ton",increased and then decreased
same,Drip loss,[2]; [13],4.85%
same,Hue angle,[2]; [13],65.14
same,L*,[2]; [13],59.72
same,Saturation index,[2]; [13],18.74
same,Temperature 5 min,[2]; [13],39.60 °C
same,Temperature 15 min,[2]; [13],40.42 °C
same,Temperature 45 min,[2]; [13],39.43 °C
same,Temperature 1.5 h,[2]; [13],35.99 °C
same,Temperature 3 h,[2]; [13],24.38 °C
same,Temperature 6 h,[2]; [13],12.04 °C
same,a*,[2]; [13],7.94
same,a*/b*,[2]; [13],0.46
same,b*,[2]; [13],16.97
same,pH 0 min,[2]; [13],7.16
same,pH 5 min,[2]; [13],6.79
same,pH 15 min,[2]; [13],6.59
same,pH 45 min,[2]; [13],6.14
same,pH 1.5 h,[2]; [13],5.89
same,pH 3 h,[2]; [13],5.59
same,pH 6 h,[2]; [13],5.61
same,pH 24 h,[2]; [13],5.58
same,Firmness,[2]; [13],1.99
same,Marbling,[2]; [13],1.85
same,Visual cobra,[2]; [13],2.75
